The text below walks through data of ChEMBL document CHEMBL1201862, “PubChem BioAssay data set” (2004).

Some test systems named below: DU-145; SF-295; NCI-H226; A498; OVCAR-3; Hs-578T; PC-3; RPMI-8226; OVCAR-8; UO-31; ACHN; SF-539; UACC-257; OVCAR-5; Malme-3M; 786-0; CAKI-1; RXF 393; HCT-116; BT-549.
Test in all cases: NCI tumour cell line growth inhibition, 48 h

SMILES strings stand for the structures.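 Tested at 5 concentrations; 48 h exposure; 96-well plates; endpoints linearly interpolated, else capped at highest concentration. At the GI50, growth is halved.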 The source made the active and inactive calls. Rule as the data show it: active = GI50 up to about 1.1 µM and inactive = higher. Some results are limits rather than exact numbers.

In the case of `Oc1ccc(O)c(Cc2ccccc2)c1`, the GI50 in the assay on DU-145 is 6.27 µM (inactive); with SF-295, 56.1 µM (inactive); with NCI-H226, 19.6 µM (inactive); with A498, 43.9 µM (inactive); in the assay on OVCAR-3 it was 1.07 µM (active); in the assay on Hs-578T it was 31.9 µM (inactive). Also, the GI50 was 27.9 µM (inactive) in the assay on PC-3; 3.61 µM (inactive) in the assay with RPMI-8226; 15.4 µM (inactive) in the assay on OVCAR-8; 15.1 µM (inactive) in the assay on UO-31; 14.8 µM (inactive) with ACHN; 10.7 µM (inactive) in the assay on SF-539. Further, the GI50 in the assay on UACC-257 is 25.9 µM (inactive); in the assay with OVCAR-5, 57.5 µM (inactive); in the assay on Malme-3M, 26.4 µM (inactive); in the assay with 786-0, 14.7 µM (inactive).

With `CC(C(O)c1ccccc1)[N+](=O)[O-]` (stereo not drawn), the GI50 is 12.7 µM (inactive) in the assay with DU-145; 28.5 µM (inactive) in the assay on SF-295; 24.4 µM (inactive) with NCI-H226; 17.5 µM (inactive) in the assay with A498; 4.91 µM (inactive) in the assay with OVCAR-3; 28.2 µM (inactive) in the assay on Hs-578T. The GI50 in the assay on PC-3 is 22.6 µM (inactive); with RPMI-8226, 2.9 µM (inactive); in the assay on OVCAR-8, 16.4 µM (inactive); with UO-31, 7.69 µM (inactive); with ACHN it was 16.3 µM (inactive); with CAKI-1 it was 14.2 µM (inactive). Also, the GI50 was 10.9 µM (inactive) with RXF 393; 20.3 µM (inactive) in the assay with SF-539; 16.8 µM (inactive) with UACC-257; 37.6 µM (inactive) in the assay on HCT-116; 24.1 µM (inactive) in the assay on OVCAR-5; 21.7 µM (inactive) in the assay with Malme-3M. Besides, the GI50 in the assay on 786-0 is 6.93 µM (inactive).

Take `CCCCCCCCCCCCCCCC1(OC)C[N+](C)(C)CCO1` (stereo not drawn): the GI50 in the assay on DU-145 was 2.35 µM (inactive); in the assay with SF-295, 1.69 µM (inactive); with NCI-H226, 1.08 µM (active); with A498, 19.1 µM (inactive); in the assay on OVCAR-3 it was 1.75 µM (inactive); in the assay with Hs-578T, 1.97 µM (inactive). Also, the GI50 in the assay on PC-3 is 2.4 µM (inactive); in the assay with OVCAR-8, 1.83 µM (inactive); with ACHN, 1.85 µM (inactive); in the assay on CAKI-1, 1.4 µM (inactive); with RXF 393 it was 0.778 µM (active); in the assay with SF-539, 1.74 µM (inactive). Also, the GI50 is 2.08 µM (inactive) with UACC-257; 1.63 µM (inactive) in the assay with HCT-116; 2.23 µM (inactive) with OVCAR-5; 2.18 µM (inactive) in the assay on Malme-3M; 0.813 µM (active) in the assay on 786-0.

Take `O=C(/C=C1/Nc2ccc([N+](=O)[O-])cc2N/C1=C/C(=O)c1ccc(Cl)cc1)c1ccccc1`: the GI50 in the assay with DU-145 was > 100 µM (inactive); in the assay with SF-295, 23.4 µM (inactive); with NCI-H226 it was > 100 µM (inactive); in the assay on A498, 35.6 µM (inactive); in the assay with OVCAR-3 it was > 100 µM (inactive); with PC-3 it was > 100 µM (inactive). Moreover, the GI50 in the assay with OVCAR-8 is 72.4 µM (inactive); with UO-31, > 100 µM (inactive); with ACHN, > 100 µM (inactive); with CAKI-1, > 100 µM (inactive); with BT-549 it was > 100 µM (inactive); with RXF 393, 23.8 µM (inactive). The GI50 with SF-539 is 30.3 µM (inactive); in the assay on UACC-257, > 100 µM (inactive); in the assay with HCT-116, 56.9 µM (inactive); with OVCAR-5, > 100 µM (inactive); with Malme-3M, > 100 µM (inactive); in the assay on 786-0 it was 48.3 µM (inactive).

Regarding `[O-][N+]1=[N+]([O-])[C@@H](c2ccccc2)[C@H]1c1ccccc1`, the GI50 with DU-145 was 16.3 µM (inactive); in the assay on SF-295, 19.9 µM (inactive); in the assay with NCI-H226 it was 21.3 µM (inactive); in the assay with A498, 27.1 µM (inactive); in the assay with OVCAR-3, 15.2 µM (inactive); in the assay on Hs-578T, > 100 µM (inactive). Besides, the GI50 in the assay with PC-3 is 17.5 µM (inactive); with RPMI-8226, 4.48 µM (inactive); with OVCAR-8, 16.8 µM (inactive); in the assay with UO-31, 14.8 µM (inactive); in the assay on ACHN, 17.6 µM (inactive); with CAKI-1, 5.83 µM (inactive). Moreover, the GI50 was 14.8 µM (inactive) in the assay with RXF 393; 18.4 µM (inactive) in the assay with SF-539; 13.1 µM (inactive) with UACC-257; 16.6 µM (inactive) in the assay on HCT-116; 19.9 µM (inactive) in the assay on OVCAR-5; 17.7 µM (inactive) with Malme-3M. Also, the GI50 with 786-0 is 13.5 µM (inactive).

As to `C=CCOC(=O)N1c2ccc(O)cc2[C@@]23O[C@@]24[C@@H]1C#C/C=C\C#C[C@]3(O)C(=O)C[C@@H]4C`, the GI50 with DU-145 is > 100 µM (inactive); in the assay on SF-295, > 100 µM (inactive); in the assay on NCI-H226, 34.4 µM (inactive); in the assay on A498, 42.8 µM (inactive); with Hs-578T, 47.5 µM (inactive); with PC-3 it was 34.8 µM (inactive). In addition, the GI50 was 25.6 µM (inactive) in the assay with RPMI-8226; 47.1 µM (inactive) in the assay with OVCAR-8; 54.3 µM (inactive) in the assay on UO-31; 28.2 µM (inactive) in the assay on ACHN; > 100 µM (inactive) with CAKI-1; > 100 µM (inactive) in the assay on RXF 393. The GI50 in the assay on SF-539 is 83.8 µM (inactive); in the assay on UACC-257, > 100 µM (inactive); in the assay with HCT-116 it was 51.5 µM (inactive); in the assay with OVCAR-5, 28.2 µM (inactive); with Malme-3M, 98.2 µM (inactive); in the assay with 786-0 it was 13.9 µM (inactive).

Take `CC(C)(C)CC(C)(C)N/C(N)=N/O`: the GI50 was > 100 µM (inactive) in the assay with DU-145; > 100 µM (inactive) with SF-295; 58.5 µM (inactive) in the assay on NCI-H226; > 22.6 µM (inactive) in the assay with A498; 22.2 µM (inactive) in the assay with OVCAR-3; 15 µM (inactive) in the assay on Hs-578T. For the same compound, the GI50 is 15.1 µM (inactive) in the assay with PC-3; > 100 µM (inactive) in the assay on RPMI-8226; > 80 µM (inactive) with OVCAR-8; > 21.7 µM (inactive) with UO-31; 6.71 µM (inactive) in the assay with ACHN; > 100 µM (inactive) in the assay with CAKI-1. Besides, the GI50 is > 100 µM (inactive) with RXF 393; > 60.8 µM (inactive) in the assay on SF-539; 41.4 µM (inactive) in the assay with UACC-257; 9.71 µM (inactive) in the assay with HCT-116; > 100 µM (inactive) with OVCAR-5; > 100 µM (inactive) with Malme-3M. The GI50 with 786-0 is > 100 µM (inactive).

As to `CN(CC(=O)O)c1ncc2c(n1)-c1ccccc1OC2`, the GI50 with DU-145, in the assay on SF-295, with A498, in the assay on Hs-578T, with PC-3 and in the assay on RPMI-8226 was > 100 µM (inactive) each time. In addition, the GI50 with OVCAR-8, with UO-31, in the assay with ACHN, in the assay with CAKI-1, in the assay on RXF 393 and in the assay with SF-539 was > 100 µM (inactive) in each case. Further, the GI50 in the assay on UACC-257, in the assay on HCT-116, in the assay on OVCAR-5, with Malme-3M and with 786-0 was > 100 µM (inactive) in each case.

With `COc1ccc(CNc2nc(NCc3ccc(OC)cc3)nc(NC3CCCC3)n2)cc1`, the GI50 in the assay with DU-145 was 3.44 µM (inactive); in the assay on SF-295, 2.18 µM (inactive); in the assay on NCI-H226 it was 5.07 µM (inactive); in the assay on OVCAR-3, 2.76 µM (inactive); in the assay on Hs-578T, 3.07 µM (inactive); with PC-3, 2.84 µM (inactive). Further, the GI50 is 2.24 µM (inactive) in the assay with RPMI-8226; 4.06 µM (inactive) in the assay on OVCAR-8; 6.43 µM (inactive) in the assay with UO-31; 4.47 µM (inactive) in the assay with ACHN; 4.02 µM (inactive) with CAKI-1; 0.665 µM (active) with RXF 393. Besides, the GI50 in the assay on SF-539 is 2.75 µM (inactive); in the assay with UACC-257 it was 12 µM (inactive); in the assay with HCT-116, 2.64 µM (inactive); in the assay with OVCAR-5, 3.63 µM (inactive); in the assay on Malme-3M, 8.53 µM (inactive); in the assay with 786-0 it was 4.05 µM (inactive).

Turning to `Cc1cc2[nH]c3c(C#N)c(-c4ccccc4)c(/C=N/c4ccc(Cl)cc4)c(=O)n3c2cc1C`, the GI50 in the assay with SF-295, in the assay on NCI-H226, in the assay with A498, in the assay on OVCAR-3, with PC-3 and with RPMI-8226 was > 100 µM (inactive) in each case. For the same compound, the GI50 in the assay on OVCAR-8, in the assay on UO-31, in the assay with ACHN, in the assay with CAKI-1, in the assay with BT-549 and with RXF 393 was > 100 µM (inactive) in each case. Moreover, the GI50 in the assay with SF-539, with UACC-257, in the assay with HCT-116, with OVCAR-5, with Malme-3M and with 786-0 was > 100 µM (inactive) in each case.

Turning to `O=c1[nH]nc(N/N=C\c2ccc(Cl)cc2)c2ccccc12`, the GI50 with DU-145 is 21.9 µM (inactive); in the assay on SF-295, 18.5 µM (inactive); in the assay with NCI-H226, 27.6 µM (inactive); in the assay with A498 it was 30.3 µM (inactive); in the assay with OVCAR-3, 16 µM (inactive); in the assay with Hs-578T, 37 µM (inactive). Further, the GI50 with PC-3 was 17.2 µM (inactive); with RPMI-8226, 25.7 µM (inactive); in the assay on OVCAR-8, 24.3 µM (inactive); in the assay on UO-31, 18.6 µM (inactive); with ACHN it was 21.4 µM (inactive); with CAKI-1, 18.3 µM (inactive). Also, the GI50 in the assay with RXF 393 was 25.4 µM (inactive); with SF-539, 21.4 µM (inactive); with UACC-257, 21.4 µM (inactive); in the assay with HCT-116, 28.2 µM (inactive); in the assay on OVCAR-5 it was 16.9 µM (inactive); with Malme-3M, 22 µM (inactive). Also, the GI50 in the assay with 786-0 is 14.8 µM (inactive).
